Data published in patent publication US11654094B2, “Composition comprising benzoic acid amide compound and cyclodextrin solubilizing agent” (AMOREPACIFIC CORPORATION, priority 2017, dated 2023).
≈ marks a conversion by molar mass, not a printed value. Where two headings read alike, the source gives them in different places. Values belong to the molecule of their own block, whether it stands above or below them.

How the values were obtained:
[1] = Amount of solubilizers needed to dissolve DBAB in water (synergy of cyclodextrin with other solubilizers); assay type: physicochemical; conditions: for solubility of the composition: 0.1% by weight DBAB
Source text: The synergistic effect of cyclodextrin as a solubilizer of the present invention in combination with other solubilizers (a second solubilizer and a third solubilizer) was investigated.

[2] = pH and solubility of HP-β-CD/DBAB compositions; assay type: physicochemical; conditions: HP-β-CD and DBAB mixed at a weight ratio of 1:1
Source text: In addition to investigation of the solubility improvement with varying pH, the solubility of the composition was investigated with varying the pH of the composition and the weight ratio of HP-β-CD and DBAB as shown in Table 3 below.

[3] = Solubility of DBAB achieved by solvents; assay type: physicochemical; conditions: organic solvent or mixture
melanin synthesis = conditions: background statement; verified through cell and artificial skin tests; cited from earlier work
MITF = conditions: through the cAMP-PKA-CREB signal pathway; background statement; cited from earlier work
[4] = Solubility of DBAB for each type of cyclodextrin and their 1:1 combinations (amount of CD required); assay type: physicochemical; conditions: single cyclodextrin or 1:1 weight ratio combination
Protocol: In order to investigate the solubility of one part by weight of DBAB for each type of cyclodextrin and the synergistic effect between cyclodextrins, the solubility of each of α-CD, γ-CD, HP-α-CD, HP-β-CD and HP-γ-CD and the solubility of their 1:1 weight ratio combinations was determined, as shown in Table 4 below.

[5] = Solubility of DBAB at various weight ratios of HP-β-CD and γ-CD, total CD 0.5%; conditions: 0.2% by weight of each of HP-β-CD and γ-CD, test method of Table 5
Protocol: In this case, 10% by weight of PEG.PPG-17.6 copolymer, 0.1% by weight of DBAB, 39.4% by weight of propanediol, 50% by weight of water and 0.5% by weight of the total CD were used.
In addition, the test method of Table 5 was carried out by using 0.2% by weight of each of HP-β-CD and γ-CD with an addition of 0.1% by weight of HP-α-CD, HP-γ-CD, α-CD or β-CD.

solubility of the composition ([1]; 30% by weight PEG.PPG-17.6 copolymer, 0.6% by weight HP-β-CD): transparently dissolved | solubility of the composition ([1]; 50% by weight PEG.PPG-17.6 copolymer, balance water): transparently dissolved | pH at which the composition has improved solubility [2]: ≥ 12.72 | solubility ([3]; PEG.PPG-17.6 copolymer, read-out: solubility of DBAB achieved by PEG.PPG-17.6 copolymer): 81.3 mg/mL (≈ 186 mM) | solubility ([3]; propanediol, read-out: solubility of DBAB achieved by propanediol): 5.92 mg/mL (≈ 13.5 mM)
Molecule: COc1cc(OC)c(C23CC4CC(CC(C4)C2)C3)cc1C(=O)NCc1ccc(O)cc1O [DBAB, 5-adamantan-1-yl-N-(2,4-dihydroxybenzyl)-2,4-dimethoxy-benzoic acid amide]
melanin synthesis (melanin synthesis): inhibiting melanin synthesis | expression of MITF (MITF): reduces the expression of MITF

amount of CD required (weight ratio CD:DBAB, x:1) to transparently dissolve one part by weight of DBAB [4]: >20 | effect on solubility of DBAB of adding 0.1% by weight of a further cyclodextrin [5]: did not improve the solubility
Molecule: hydroxypropyl-α-cyclodextrin [HPα]

PEG.PPG-17.6 copolymer replaced by 0.6% of HP-β-CD ([1]; composition comprising DBAB): 20% | PEG.PPG-17.6 copolymer replaced by 0.1% by weight of HP-β-CD ([1]; composition with 0.1% by weight of DBAB): 20 % by weight | amount of CD required (weight ratio CD:DBAB, x:1) to transparently dissolve one part by weight of DBAB [4]: 20
Molecule: hydroxypropyl-β-cyclodextrin [HP-β-CD]

amount of CD required (weight ratio CD:DBAB, x:1) to transparently dissolve one part by weight of DBAB [4]: >20
Molecule: hydroxypropyl-γ-cyclodextrin [HPγ]

amount of CD required (weight ratio CD:DBAB, x:1) to transparently dissolve one part by weight of DBAB [4]: >20 | effect on solubility of DBAB of adding 0.1% by weight of a further cyclodextrin [5]: did not improve the solubility
Molecule: OC[C@H]1O[C@@H]2O[C@H]3[C@H](O)[C@@H](O)[C@@H](O[C@H]4[C@H](O)[C@@H](O)[C@@H](O[C@H]5[C@H](O)[C@@H](O)[C@@H](O[C@H]6[C@H](O)[C@@H](O)[C@@H](O[C@H]7[C@H](O)[C@@H](O)[C@@H](O[C@H]8[C@H](O)[C@@H](O)[C@@H](O[C@H]1[C@H](O)[C@H]2O)O[C@@H]8CO)O[C@@H]7CO)O[C@@H]6CO)O[C@@H]5CO)O[C@@H]4CO)O[C@@H]3CO [β, β-cyclodextrin]

Molecule: OC[C@H]1O[C@@H]2O[C@H]3[C@H](O)[C@@H](O)[C@@H](O[C@H]4[C@H](O)[C@@H](O)[C@@H](O[C@H]5[C@H](O)[C@@H](O)[C@@H](O[C@H]6[C@H](O)[C@@H](O)[C@@H](O[C@H]7[C@H](O)[C@@H](O)[C@@H](O[C@H]1[C@H](O)[C@H]2O)O[C@@H]7CO)O[C@@H]6CO)O[C@@H]5CO)O[C@@H]4CO)O[C@@H]3CO [α, α-cyclodextrin]
amount of CD required (weight ratio CD:DBAB, x:1) to transparently dissolve one part by weight of DBAB [4]: >20 | effect on solubility of DBAB of adding 0.1% by weight of a further cyclodextrin [5]: did not improve the solubility
